Laboratory results published in BindingDB's records for doi:10.1021/jm00366a022 (1984).

Assays:
[1] = molecular target: Alpha-1 adrenergic receptor (Bos taurus); assay: Binding affinity against alpha-1 adrenergic receptor from calf cerebral cortex, using [3H]prazosin as the radioligand
[2] = molecular target: Alpha-1 adrenergic receptor (Bos taurus); assay: as above; remark: listed apart in the source

Structure (SMILES) | Ki [1] [nM] | Ki [2] [nM]
Oc1cccc(NCC2=NCCN2)c1 [3-[(4,5-Dihydro-1H-imidazol-2-ylmethyl)-amino]-phenol] | 380 | 
CCN(CC1=NCCN1)c1ccc(C)cc1 [(4,5-Dihydro-1H-imidazol-2-ylmethyl)-ethyl-p-tolyl-amine] |  | 300
Cc1ccc(N(C)CC2=NCCN2)cc1 [(4,5-Dihydro-1H-imidazol-2-ylmethyl)-methyl-p-tolyl-amine] | 150 | 
Cc1ccc(NCC2=NCCN2)cc1 [(4,5-Dihydro-1H-imidazol-2-ylmethyl)-p-tolyl-amine] |  | 230
Cc1ccc(N(CC2=NCCN2)C2CCCCC2)cc1 [Cyclohexyl-(4,5-dihydro-1H-imidazol-2-ylmethyl)-p-tolyl-amine] |  | 424
